Measured values as given in patent publication US20120178147A1, “MICROBIAL CULTURES AND METHODS FOR ANAEROBIC BIOREMEDIATION” (priority 2009, published 2012).
“Also recorded” adds a separate entry of the source.

Key:
[1] = test system: Dehalococcoides; assay: qRT-PCR of Dehalococcoides 16S rRNA genes in BDI cultures; assay type: cell-based; conditions: for effect on growth of Dehalococcoides in BDI cultures: 1.5 μM TCC or 35 μM TCS; for Dehalococcoides 16S rRNA gene copies, day 27 / Dehalococcoides 16S rRNA gene copies, initial: BDI with 1.5 μM TCC or 35 μM TCS
Experimental: (§1) Quantitative real-time PCR (qRT-PCR) was performed for enumeration of general 16S rRNA genes and Dehalococcoides 16S rRNA genes in culture DehaloR̂2 and Bio-Dechlor INOCULUM. The primers used for general 16S rRNA genes were Bac1055F (5′-ATG GYT GTC GTC ACCT-3′) and Bac1392R (5′-ACG GGC GGT GTG TAC-3′) (Ritalahti et al., 2006), and the probe was Bac16sTaq (FAM-CAA CGA GCG CAA CCC/3-BHQ-1/). The final volume of PCR reactions was 10 μL, and the final concentration of each chemical in a single reaction tube was: 1× RealMasterMix (Fisher Scientific, Pittsburgh, Pa.), 300 nM Probe, 300 nM each Primer, and 130 nM DNA samples. The PCR conditions were as follows: 2 min at 95° C. followed by 40 cycles of 10 s at 95° C., 20 s at 56° C. and 20 s at 68° C. The primers used for Dehalococcoides 16S rRNA genes were Dhc1200F (5′-CTGGAGCTAATCCCCAAAGCT-3′) and Dhc1271R (5′-CAA CTT CAT GCA GGC GGG-3′), and the probe was Dhc1240Pr (FAM-TCCTCAGTTCGGATTGCAGGC TGAA/3-BHQ-1) (He et al., 2003b). The final volume of PCR reactions was 10 μL, and the final concentration of each chemical in a single reaction tube was: 1× RealMasterMix (Fisher Scientific, Pittsburgh, Pa.), 200 nM Probe, 700 nM each Primer, and 130 nM DNA samples. The PCR conditions were as follows: 2 min at 95° C. followed by 40 cycles of 15 s at 95° C., 20 s at 58° C. and 20 s at 68° C.
(§2) Quantitative Real time PCR (qRT-PCR) was carried out in a spectrofluorimetric thermal cycler (Master cycler, epgradient S, Eppendorf). Calibration curves were performed in triplicate and a linear range of 6 orders of magnitude was obtained. Plasmids containing Dehalococcoides strain BAV1 16S rRNA genes were used as standards to construct general 16S rRNA genes and Dehalococcoides 16S rRNA genes calibration curves. The slopes of the calibration curves for general 16S rRNA genes and Dehalococcoides 16S rRNA genes were −3.46 and −3.94, and the Y intercepts were 38 and 44.2, respectively.
(§3) DNA Extraction and Quantitative Real-Time PCR. The BDI cultures and DehaloR^2 cultures were shaken vigorously first and then 10 ml of the mixed liquid was removed with a sterile syringe and dispensed into 10 1.5 ml micro centrifuge tubes. These micro centrifuge tubes were then centrifuged at 13,000 rpm for 15 min in order to make a pellet, and the pellet was used for DNA extraction. Qiagen DNeasy Blood & Tissue Kit with modifications to enhance lysis was used for DNA isolation from cultures. DNA samples were stored at −20° C.
(§4) Quantitative real-time PCR (qRT-PCR) was performed for enumeration of general 16S rRNA genes and Dehalococcoides 16S rRNA genes in BDI culture without TCC&TCS, BDI culture with 1.5 μM TCC, BDI culture with 35 μM TCS, D DehaloR̂2 culture without TCC&TCS, DehaloR^2 culture with 1.5 μM TCC and DehaloR̂2^2 culture with 35 μM TCS.
(§5) The primers used for Dehalococcoides 16S rRNA genes were Dhc1200F (5′-[…]-3′) and Dhc1271R (5′-CAACTTCATGCAGGCGGG-3′), and the probe was Dhc1240Pr (FAM-[…]/3-BHQ-1) (He et al., 2003b). The final volume of PCR reactions was 10 μL, and the final concentration of each chemical in a single reaction tube was: 1× RealMasterMix (Fisher Scientific, Pittsburgh, Pa.), 200 nM Probe, 700 nM each Primer, and 130 nM DNA samples. The PCR conditions were as follows: 2 min at 95° C. followed by 40 cycles of 15 s at 95° C., 20 s at 58° C. and 20 s at 68° C.
as §2, with “The qRT-PCR” for “Quantitative Real time PCR (qRT-PCR)”

[2] = test system: Dehalococcoides; assay: qRT-PCR of Dehalococcoides 16S rRNA genes in DehaloR̂2 cultures; assay type: cell-based; conditions: for effect on growth / gene copy number of Dehalococcoides in DehaloR̂2 cultures: 1.5 μM TCC or 35 μM TCS
Experimental: as §1, §2, §3, §4, §5
The qRT-PCR was carried out in a spectrofluorimetric thermal cycler (Master cycler, epgradient S, Eppendorf). […]

## O=C(Nc1ccc(Cl)cc1)Nc1ccc(Cl)c(Cl)c1 [TCC, 3-(4-chlorophenyl)-1-(3,4-dichlorphenyl) urea]
[1]
  effect on growth of Dehalococcoides in BDI cultures: significantly inhibited the growth of Dehalococcoides
  Dehalococcoides 16S rRNA gene copies, day 27: 1.9×10^7 gene copies/ml
  Dehalococcoides 16S rRNA gene copies, initial: 6.1×10^7 gene copies/ml
[2]
  effect on growth / gene copy number of Dehalococcoides in DehaloR̂2 cultures: did not exert any inhibitory effect on the growth of Dehalococcoides
[2]; DehaloR̂2 with 1.5 μM TCC
  Dehalococcoides 16S rRNA gene copies, day 22: 3.9×10^7 gene copies/ml
  Dehalococcoides 16S rRNA gene copies, day 22 relative to initial: 11.6 times
  Dehalococcoides 16S rRNA gene copies, initial: 3.3×10^6 gene copies/ml

## Oc1cc(Cl)ccc1Oc1ccc(Cl)cc1Cl [TCS, 5-chloro-2-[2,4-dichloro-phenoxy]-phenol]
[1]
  effect on growth of Dehalococcoides in BDI cultures: significantly inhibited the growth of Dehalococcoides
  Dehalococcoides 16S rRNA gene copies, day 27: 9.4×10^6 gene copies/ml
  Dehalococcoides 16S rRNA gene copies, initial: 8.9×10^7 gene copies/ml
[2]
  effect on growth / gene copy number of Dehalococcoides in DehaloR̂2 cultures: almost remained constant; also recorded: significantly inhibited the growth of Dehalococcoides
